Columns and labels:
[1] = DPPH radical scavenging by spectrophotometry; type: biochemical; conditions: 30 min at 22 to 24° C., 515 nm, concentrations as quercetin equivalent, read-out: SC50 (concentration required to obtain 50% of a maximum scavenging capacity)
Description: After a 30 min incubation at 22 to 24° C., the resultant absorbance was recorded at 515 nm by a double-beam spectrophotometer model UV-2401 (Shimadzu Scientific Instruments Inc., Columbia, Md.). Ascorbate, propyl gallate, and quercetin were used as reference standard. The scavenging capacity%=[1-((Abs of cranberry crude extract/fractions-Abs of blank)/Abs control)]*100. […] Plant Sci. 2002, 163, 1161-1168). The cranberry crude extract/fractions were evaluated and compared with ascorbic acid, propyl gallate and quercetin for the free radical scavenging activity toward stable DPPH radicals. […] Specifically, in referring to FIG. 21, the final concentration of DPPH radical was […].

[2] = tested on: trout hemoglobin-mediated lipid oxidation in washed cod muscle; assay: Hemoglobin-mediated lipid oxidation in washed cod muscle (TBARS); conditions: for Effect on lipid oxidation in washed cod muscle: hemoglobin-mediated, 2° C. storage, FIG. 22 and 23; for Inhibition in TBARS formation: washed cod muscle
Description: Furthermore, cod muscle and trout hemoglobin were prepared according to the method described by Richards et al., Role of deoxyhemoglobin in lipid oxidation of washed cod muscle mediated by trout, poultry and beef hemoglobins. Meat Sci. 2002, 62, 157-163. The hemoglobin-mediated lipid oxidation system consisted of washed cod muscle, cranberry crude extract/fractions, streptomycin sulfate, and trout hemoglobin. The final concentration of hemoglobin and cranberry extract/fractions was 12 and 37/74 μmol per kg washed cod muscle, respectively. A control sample containing no cranberry crude extract/fractions was also prepared. The final moisture content of washed cod muscle was adjusted to 90%. pH was adjusted to between 6.10 and 6.30 by 1 M NaOH or HCl. All samples were stored at 2° C. for 7 to 9 days.
The progress of lipid oxidation in washed cod muscle was followed by periodically removing samples and quantifying TBARS formed by a modified method of Buege and Aust Microsomal lipid peroxidation. Method. Enzymol. 1978, LII, 302-310 as described by Richards et al., Role of deoxyhemoglobin in lipid oxidation of washed cod muscle mediated by trout, poultry and beef hemoglobins. Meat Sci. 2002, 62, 157-163. Lag time (LT) is defined as extension in stability compared to control sample which was stable for around 1 day. All trials in this study were conducted in duplicate or triplicate and in each trial triplicate determinations were performed

[3] = tested on: salmon oil-in water emulsion; assay: Lipid oxidation in salmon oil-in water emulsion; conditions: 400 ppm, 10% salmon oil, 0.5% tween 20, pH 3.0, 27° C.
Description: Similarly, applicants have tested cranberry fractions in various emulsion systems (FIGS. 7-0). More specifically, FIG. 7, illustrates the effect of quercetin on lipid oxidation in salmon oil-in water emulsion. […] The emulsion consisted of 10% (w/w) salmon oil, 0.5% (w/w) tween 20 and 10 mM pH 3.0 acetate-imidazole buffer. Quercetin was added into the emulsion samples at the level of 400 ppm. The emulsion samples were oxidized in a shaker oven at 27° C. Likewise, FIG. 8, also illustrates the effect of cranberry fractions on lipid oxidation in salmon oil-in water emulsion. However, cranberry fractions and quercetin were added into the emulsion samples at the level of 400 ppm. Also, FIGS. 9 and 10 illustrate the effect of cranberry fractions on lipid oxidation in salmon oil-in water emulsion. However, 10% salmon oil was used in both fraction 4 and control treated samples, whereas 9.2% oil was used in the fraction 2 treated sample.

[4] = tested on: mechanically separated turkey (MST); assay: Lipid oxidation (TBARS) in mechanically separated turkey during iced storage

| EC50 [1] [µM] | SMILES | Effect on lipid oxidation in washed cod muscle [2] | Inhibition in TBARS formation ([2]; 37 μmol quercetin per kg) [%] | Inhibition in TBARS formation ([2]; 74 mmole quercetin equivalent) | Effect on lipid oxidation in emulsion systems [3] | Inhibition on lipid oxidation of MST ([4]; 210 umol quercetin/kg MST, 2° C. storage) | Inhibition of lipid oxidation in MST ([4]; quercetin at 50 umol/kg, precipitate added on a quercetin equivalent basis (FIG. 5)) |
| --- | --- | --- | --- | --- | --- | --- | --- |
| 12.2 | O=C1O[C@H]([C@@H](O)CO)C(O)=C1O [ascorbic acid] |  |  |  |  |  |  |
| 5.07 | CCCOC(=O)c1cc(O)c(O)c(O)c1 [propyl gallate] | stable throughout the entire storage period |  |  |  |  |  |
| 4.89 | O=c1c(O)c(-c2ccc(O)c(O)c2)oc2cc(O)cc(O)c12 [quercetin] | as effective as 37 mmole propyl gallate | 83 | Up to 94% | In 2 of 3 trials, quercetin was inhibitory | Effective inhibition | highly effective |

Reference: US20050175762A1, “Methods and compositions to inhibit lipid oxidation” (priority 2003, published 2005)
